Results: patent US20070232595A1, “Method for accelerating cutaneous barrier recovery” (Shiseido Company, Ltd., priority 2006, published 2007)

How the values were obtained:
[1] = tested on: Normal human epithelial keratinocytes (NHEK); experiment: Ca2+ imaging (fura-2) in single cultured keratinocytes; format: cell-based
Protocol: Normal human epithelial keratinocytes (NHEK) were purchased from Kurabo (Osaka, Japan). NHEK were cultured in serum-free keratinocyte growth medium, consisting of Humedia-KB2 (Kurabo, Osaka, Japan) supplemented with bovine pituitary extract (0.4% vol/vol), human recombinant epidermal growth (0.1 μg per mL), insulin (10 μg per mL), and hydrocortisol (0.5 μg per mL). The medium was replaced every 2-3 d. For the electrophysiological experiments, NHEK (passage 1-3 cells) were seeded onto collagen-coated glass coverslips and used within 4 d. Ca^2+ imaging in single keratinocytes
NHEK were grown to approximately 80-100% confluency on collagen-coated cover glass chambers (Nalge Nunc, Naperville, Ill.). Changes in [Ca^2+] in single cells were measured by the fura-2 method as described by Grynkiewicz et al. (1985) with minor modifications(Koizumi et al, 1998). In brief, the culture medium was replaced with a balanced salt solution (BSS) of the following composition (mM): NaCl 150, KCl 5, CaCl21.8, MgCl2 1.2, HEPES 25, NaH2PO4 1.2 and D-glucose 10 (pH 7.4) or calcium-free BSS which had the same composition as the above BSS with 1 mM EGTA and no added CaCl2. Cells were loaded with 5 μM fura-2 acetoxymethylester (fura-2AM, Molecular Probes, Eugene, Oreg.) at room temperature (21-23° C.) in BSS for 45 min, washed with BSS, and incubated for a further 30 min to allow de-esterification of the loaded dye. The cover slip was mounted on an inverted epifluorescence microscope (IX70, TS Olympus, Tokyo, Japan), equipped with a 75 W xenon lamp and band-pass filters of 340 and 380 nm. The image data, recorded by a high-sensivity CCD (charge-coupled-device) camera (ORCA-ER, Hamamatsu Photonics, Hamamatsu, Japan) were evaluated with a Ca^2+ analyzing system (AQUACOSMOS/RATIO, Hamamatsu Photonics). SNAP (300 μM), ODQ (10 μM) and nifedipine (50 μM) were dissolved in the BSS and the cells were exposed to the solution by perfusion. We observed four lots of pooled cells for each treatment. […] Data were represented as the ratio of fluorescence intensities at 340 and 380 nm.

hairless mice [2] = experiment: Skin barrier recovery (TEWL) after tape stripping with topical application; format: in vivo, mouse
Protocol: Permeability barrier function was evaluated by measurement of transepidermal water loss (TEWL) with an electric water analyzer, as described previously(Denda et al, 1998). For barrier recovery experiments, the flank skin on both sides was subjected to repeated tape stripping until the TEWL reached 7-10 mg per cm^2 per h, as described previously(Denda et al, 1998). As for nNOS-deficient mice and wild-type, the TEWL of the ears was measured over the same sites at 1, 3 and 6 hours after tape stripping. This is because the hair shaving may induce barrier disruption. Therefore, the ears that are hairless parts were selected for TEWL measurements. […] […] The areas were covered with plastic membranes for 15 min and then the membranes were removed. Two points on one flank were measured and 4-8 mice were used to evaluate the effect of each treatment. We always disrupted the barrier between 7:00 AM and 8:00 AM and carried out the measurements of the barrier repair thereafter to avoid the influence of circadian rhythm on the repair rate(Denda and Tsuchiya, 2000). TEWL was measured over the same sites at 1, 3 and 6 hours after barrier disruption. The barrier recovery results are expressed as percent recovery, because of variations from day to day in the extent of barrier disruption. In each animal, the percentage recovery was calculated according to the following formula:

hairless mice [3] = experiment: Epidermal hyperplasia induced by barrier disruption (acetone) under low humidity; format: in vivo, mouse; details: for epidermal proliferation (number of BrdU-positive cells, DNA synthesis) / epidermal thickness: topical application after acetone treatment under low humidity, compared with acetone treated skin; for epidermal hyperplasia induced by acetone treatment under low environmental humidity: topical application, 1 µM, 48 hours in dry condition
Protocol: Hairless mice were kept separately in 7.2-liter cages in which the relative humidity was maintained at less than 10% with dry air as described previously(Denda et al, 1998). The temperature was the same in all cases (22-25° C.), and fresh air was circulated 100 times per hour. Animals were kept out of the direct stream of air. During the experiments, the animal's behavior was not restricted. The level of NH3 was always below 1 ppm. Animals were first kept in a dry condition for 48 hours and then the skin on both flanks was treated with acetone-soaked cotton balls, as described previously(Denda et al, 1998). The procedure was terminated when TEWL reached 2.5-3.5 mg per cm^2 per h. Immediately after the barrier disruption, 100 μl of nNOS inhibitor and ODQ aqueous solution (1 μM) was applied on one side of the treated area. Water was applied on the other side. Then the animals were again kept in the dry condition for 48 hours. After the experiments, animals were euthanized with diethylether inhalation and skin samples were taken from the treated areas. One hour before euthanization, 20 μl per g body weight of a 10 mM solution of bromodeoxyuridine (BrdU) was injected intraperitoneally. Untreated control mice were also treated with BrdU at the same time. After fixation with 4% paraformaldehyde, full thickness skin samples were embedded in paraffin, sectioned (4 μm), and processed for hematoxylin and eosin staining. On each section, five areas were selected at random; the thickness of the epidermis was measured with an optical micrometer, and the mean value was calculated. For the assessment of DNA synthesis, the sections were immunostained with anti-BrdU antibodies. On each section, five areas were selected at random from one section; the number of immunostained cells per 1 mm of epidermis was counted and the epidermal thickness was measured with an optical micrometer. The mean value was calculated. Measurements were carried out in an observer-blinded fashion. NO evaluation in hairless mouse epidermis

skin of hairless mice = experiment: NO release from skin organ culture after tape stripping; set-up: species or system mouse; details: pre-incubation with inhibitor 100 μM; skin organ culture in PBS, 30 min at 37° C.
Description: Four male hairless mice (7-10 wk old) were killed by cervical dislocation under anesthesia and skin samples were taken immediately from both flanks. Subcutaneous fat was removed with a scalpel and the skin samples that contained epidermis and dermis, were cut into squares (1.5×1.5 cm^2). […] of skin from the two flanks of each animal were placed, epidermis side upwards, in separate 35-mm culture dishes kept in an ice/water bath, and one of them was tape-stripped four times. The other piece of skin was not treated. One milliliter of phosphate-buffered saline (PBS) was added to both dishes, which were incubated for 30 min at 37° C. After the incubation, 50 μL aliquots of the PBS were removed. NO released into the PBS was quantified using a total nitric oxide assay kit (Immuno-Biological Laboratories Co., Ltd, Gunma, Japan), according to the manufacturer's instruction.

[4] = topical application of 1 μM aqueous solution, 1, 3 and 6 hours after tape stripping, vs water control

**Q.** Which results are given for `CC(=O)NC(C(=O)O)C(C)(C)SN=O` (racemic) [SNAP, S-nitroso-N-acetyl-D,L-penicillamine]?
**A.** intracellular calcium concentration (ratio 340 nm/380 nm, fura-2) ([1]; 300 μM SNAP, calcium-containing BSS): increased; intracellular calcium concentration (ratio 340 nm/380 nm, fura-2) ([1]; SNAP, calcium-free medium): an increase of [Ca^2+] was induced; barrier recovery after tape stripping (percent recovery of TEWL) (hairless mice [2]; topical application of one millimolar solution of SNAP, vs control): delayed skin barrier recovery

**Q.** How did the “barrier recovery after tape stripping (percent recovery of TEWL)” value (hairless mice [2]; [4]) turn out when `COC(=O)[C@@H](N)CCCNC(=N)N[N+](=O)[O-]` [L-NAMA, L-N(G)-nitro-L-arginine methyl ester] was run?
**A.** The value was “accelerated the barrier repair”.

**Q.** How did the “barrier recovery after tape stripping (percent recovery of TEWL)” value (hairless mice [2]; [4]) turn out when `O=c1onc2n1-c1cc(Br)ccc1OC2` [NS 2028, 4H-8-bromo-1,2,4-oxadiazolo[3,4-dibenz[b][1,4]oxazin-1-one] was run?
**A.** The value was “accelerated the barrier recovery”.

**Q.** Which “effect on increase of intracellular calcium induced by SNAP” value ([1]; 300 μM SNAP with 10 μM ODQ or 50 μM nifedipine) does the source give for `O=c1onc2cnc3ccccc3n12` [ODQ, 1H-[1,2,4]oxadiazolo[4,3-a]quinoxalin-1-one] here?
**A.** Its value is “blocked”.

**Q.** What about the “epidermal proliferation (number of BrdU-positive cells, DNA synthesis)” value (hairless mice [3]) of the same compound?
**A.** The value was “Significant reductions”.

**Q.** What about the epidermal thickness (hairless mice [3]) of the same compound?
**A.** Its epidermal thickness is “Significant reductions”.

**Q.** And the “epidermal hyperplasia induced by acetone treatment under low environmental humidity” value (hairless mice [3])?
**A.** Its value is “prevented the hyperplasia”.

**Q.** What about the “barrier recovery after tape stripping (percent recovery of TEWL)” value (hairless mice [2]; [4]) of the same compound?
**A.** The value was “accelerated the barrier recovery”.

**Q.** Which “barrier recovery after tape stripping (percent recovery of TEWL)” value (hairless mice [2]; [4]) does the source give for `Nc1c[n+](N2CCOCC2)no1.[Cl-]` [SIN, SIN-1 chloride] here?
**A.** The value was “delayed the barrier recovery”.

**Q.** `CSC(=N)N` [iNOS inhibitor, S-methylisothiourea] was tested. Which “barrier recovery after tape stripping (percent recovery of TEWL)” value (hairless mice [2]; [4]) did it give?
**A.** The value was “did not affect the barrier recovery”.

**Q.** What about the “increase of NO level (release) after tape stripping” value (skin of hairless mice) of the same compound?
**A.** The value was “did not affect”.

**Q.** For `CCCNC(=N)NCCC[C@H](N)C(=O)O` [nNOS inhibitor, N^ω-propyl-L-arginine], which “epidermal proliferation (number of BrdU-positive cells, DNA synthesis)” value (hairless mice [3]) is on record?
**A.** The value was “Significant reductions”.

**Q.** And the epidermal thickness (hairless mice [3])?
**A.** Its epidermal thickness is “Significant reductions”.

**Q.** What about the “epidermal hyperplasia induced by acetone treatment under low environmental humidity” value (hairless mice [3]) of the same compound?
**A.** Its value is “prevented the epidermal hyperplasia”.

**Q.** What about the “barrier recovery after tape stripping (percent recovery of TEWL)” value (hairless mice [2]; [4]) of the same compound?
**A.** Its value is “accelerated the barrier repair”.

**Q.** And the “increase of NO level (release) after tape stripping” value (skin of hairless mice)?
**A.** Its value is “blocked”.
